According to US11518758B2, “Heteroarylaminopyrimidine amide autophagy inhibitors and methods of use thereof” (Deciphera Pharmaceuticals, LLC, priority 2019, dated 2022):

Columns and labels:
[1] = system: phospho-Serine 318 ATG13 (pATG13) in T24 cells; assay: pATG13 levels of mutant HRas T24 cells after treatment with ULK inhibitors in combination with trametinib (ELISA); type: cell-based, human; conditions: with 250 nM trametinib
Experimental: Example 181. pATG13 Levels of Mutant HRas T24 Cells after Treatment with ULK Inhibitors in Combination with Trametinib
T24 human urinary bladder cancer cells (25000 cells/well) were added to a 96-well tissue-culture treated plate in 100 μL of pre-warmed DMEM medium supplemented with 10% characterized fetal bovine serum (Invitrogen, Carlsbad, Calif.), 100 units/mL penicillin G, and 100 μg/mL streptomycin and allowed to grow overnight at 37° C., 5% CO2, and 95% humidity. The following day, 100 μL of media containing trametinib or DMSO as a control was added to wells. The final concentration of trametinib in wells was 250 nM. A dose response of a test compound (0.5 μL per well) was added. DMSO (0.5 μL) was added to control wells. The plate was briefly shaken to mix wells and then incubated at 37° C. overnight. The next day, the media was aspirated and cells were washed with Dulbecco's Phosphate Buffered Saline (Gibco). Cells were lysed using MPER lysis buffer (Pierce, Rockford, Ill.) containing Halt Phosphatase and Protease Inhibitors (Pierce, Rockford, Ill.) and Phosphatase inhibitor cocktail 2 (Sigma, St. Louis, Mo.) at 4° C. for 10 minutes with shaking.
Cellular levels of phospho-Serine 318 ATG13 (pATG13) were measured via an ELISA method. Total ATG13 Antibody (Cell Signaling Cat #13273) was used to coat the wells. The plate was incubated at 4° C. overnight and washed with ELISA wash buffer (Biolegend Cat #421601). The wells were then blocked with assay diluent (Biolegend Cat #421203) for 1 hour at room temperature. Plate wells were washed with ELISA wash buffer. Cell lysate was added to wells and incubated at room temperature for 2 hours. Plate wells were washed with ELISA wash buffer. Biotinylated pS318-ATG13 antibody (Rockland Immunochemicals Cat #600-401-C49) was diluted in assay diluent and added to each well and incubated at room temperature for 1 hour. Plate wells were washed with ELISA wash buffer. Streptavidin linked to horseradish peroxidase (Thermo Fisher Cat #21140) was diluted in assay diluent and added to each well and incubated at room temperature for 1 hour. Plate wells were washed with ELISA wash buffer. High sensitivity TMB substrate (Biolegend Cat #421101) was added to each well and incubated at room temperature for 20 minutes. The reaction was stopped with 2N Sulfuric Acid. The plate was analyzed at on a plate reader measuring absorbance at 450 nm and 540 nm (background). Signal was calculated by first subtracting the background absorbance at 540 nm from the absorbance at 450 nm for each well. Next, the background corrected absorbance at 450 nm from blank wells was subtracted from test wells. Data was compared to control wells to determine % ATG13 phosphorylation. GraphPad Prism was used to calculate IC50 values.

ULK1 kinase = biological target: T1, ULK1 kinase (Homo sapiens, UniProt O75385, E37A/K38A); assay: Biochemical assay for ULK1.3 (coupled pyruvate kinase/lactate dehydrogenase assay); conditions: 0.1 nM ULK1 (from Beryllium), peptide substrate, 1 mM ATP
T1 construct: (residues 1-283; ID NO: 2); purchased Beryllium
T1 sequence (O75385 1-283 E37A/K38A): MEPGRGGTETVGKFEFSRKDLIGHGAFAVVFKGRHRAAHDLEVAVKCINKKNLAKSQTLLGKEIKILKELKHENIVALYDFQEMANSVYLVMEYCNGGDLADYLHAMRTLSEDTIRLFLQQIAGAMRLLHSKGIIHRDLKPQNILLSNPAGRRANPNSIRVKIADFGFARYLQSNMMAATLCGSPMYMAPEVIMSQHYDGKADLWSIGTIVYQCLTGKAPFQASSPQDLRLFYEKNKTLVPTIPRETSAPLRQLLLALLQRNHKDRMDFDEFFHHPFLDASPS
Experimental: Example 175. Biochemical Assay for ULK1.3
Activity of ULK1 kinase was determined spectroscopically using a coupled pyruvate kinase/lactate dehydrogenase assay that continuously monitors the ATP hydrolysis-dependent oxidation of NADH (e.g., Schindler et al. Science (2000) 289: 1938-1942). Assays were conducted in 384-well plates (100 uL final volume) using 0.1 nM ULK1 (from Beryllium), 0.075 mM peptide substrate (YANWLAASIYLDGKKK (SEQ ID NO: 5)), 1.5 units pyruvate kinase, 2.1 units lactate dehydrogenase, 1 mM phosphoenol pyruvate, 0.28 mM NADH and 1 mM ATP in assay buffer (100 mM Tris, pH 7.5, 15 mM MgCl2, 0.5 mM DTT, 0.004% (w/v) BSA, and 0.004% Triton X-100). Inhibition of ULK1 was measured by adding serial diluted test compound (final assay concentration of 1% DMSO). A decrease in absorption at 340 nm was monitored continuously for 6 hours at 30° C. on a multi-mode microplate reader (BioTek). The reaction rate was calculated using the 2-3 h time frame. The reaction rate at each concentration of compound was converted to percent inhibition using controls (i.e. reaction with no test compound and reaction with a known inhibitor) and IC50 values were calculated using software routines in Prism (GraphPad software).

LRRK2 kinase = biological target: T2, LRRK2 kinase (Homo sapiens, UniProt Q5S007); assay: Biochemical assay for LRRK2 (coupled pyruvate kinase/lactate dehydrogenase assay); conditions: 26.4 nM LRRK2 (residues 970-2528), 0.1 mM peptide substrate, 1 mM ATP
T2 construct: purchased Thermo Fisher
T2 sequence (Q5S007 with tags, fused parts or gaps): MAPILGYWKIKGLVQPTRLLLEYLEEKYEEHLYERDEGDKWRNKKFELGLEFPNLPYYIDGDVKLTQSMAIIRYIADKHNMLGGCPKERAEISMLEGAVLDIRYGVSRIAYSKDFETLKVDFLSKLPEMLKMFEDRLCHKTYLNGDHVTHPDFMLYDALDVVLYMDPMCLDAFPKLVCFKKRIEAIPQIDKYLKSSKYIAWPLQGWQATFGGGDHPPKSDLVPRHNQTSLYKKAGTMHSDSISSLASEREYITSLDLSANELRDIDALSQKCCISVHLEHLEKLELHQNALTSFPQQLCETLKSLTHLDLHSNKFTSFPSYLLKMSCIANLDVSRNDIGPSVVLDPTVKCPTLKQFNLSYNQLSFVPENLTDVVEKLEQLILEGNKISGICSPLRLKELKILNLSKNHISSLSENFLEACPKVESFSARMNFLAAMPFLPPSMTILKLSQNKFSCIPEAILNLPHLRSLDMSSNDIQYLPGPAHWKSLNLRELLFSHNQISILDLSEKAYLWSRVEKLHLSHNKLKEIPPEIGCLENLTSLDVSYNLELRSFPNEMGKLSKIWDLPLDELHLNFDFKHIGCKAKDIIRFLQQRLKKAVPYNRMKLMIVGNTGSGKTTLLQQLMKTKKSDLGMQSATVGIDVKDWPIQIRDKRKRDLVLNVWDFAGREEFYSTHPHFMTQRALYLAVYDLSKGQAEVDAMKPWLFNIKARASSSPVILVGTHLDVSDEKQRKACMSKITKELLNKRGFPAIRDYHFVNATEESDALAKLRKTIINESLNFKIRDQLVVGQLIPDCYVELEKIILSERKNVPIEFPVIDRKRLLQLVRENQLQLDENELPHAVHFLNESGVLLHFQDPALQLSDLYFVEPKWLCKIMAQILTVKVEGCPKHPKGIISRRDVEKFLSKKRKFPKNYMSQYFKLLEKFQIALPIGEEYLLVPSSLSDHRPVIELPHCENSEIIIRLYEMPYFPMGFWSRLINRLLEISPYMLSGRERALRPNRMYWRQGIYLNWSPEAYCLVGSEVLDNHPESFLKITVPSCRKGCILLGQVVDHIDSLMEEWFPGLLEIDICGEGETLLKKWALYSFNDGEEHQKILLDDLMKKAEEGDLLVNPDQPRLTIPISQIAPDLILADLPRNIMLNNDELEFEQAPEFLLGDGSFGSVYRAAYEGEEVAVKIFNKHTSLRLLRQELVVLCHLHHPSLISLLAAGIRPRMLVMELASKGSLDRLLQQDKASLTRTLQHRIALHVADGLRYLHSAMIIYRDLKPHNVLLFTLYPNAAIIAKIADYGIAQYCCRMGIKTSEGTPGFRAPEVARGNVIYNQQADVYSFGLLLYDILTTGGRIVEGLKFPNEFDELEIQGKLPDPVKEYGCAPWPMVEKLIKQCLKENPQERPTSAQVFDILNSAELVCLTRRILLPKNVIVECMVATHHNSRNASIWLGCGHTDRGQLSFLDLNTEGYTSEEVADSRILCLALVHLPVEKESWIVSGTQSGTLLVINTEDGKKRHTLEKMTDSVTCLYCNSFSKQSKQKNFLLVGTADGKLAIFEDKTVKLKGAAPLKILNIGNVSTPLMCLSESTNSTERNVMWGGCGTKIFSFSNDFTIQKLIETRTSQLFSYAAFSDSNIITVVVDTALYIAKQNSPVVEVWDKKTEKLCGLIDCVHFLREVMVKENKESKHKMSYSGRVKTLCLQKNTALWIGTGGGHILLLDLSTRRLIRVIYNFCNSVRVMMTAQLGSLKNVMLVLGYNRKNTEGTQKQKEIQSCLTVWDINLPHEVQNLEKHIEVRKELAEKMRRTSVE

Structure (SMILES) | IC50 [1] | IC50 (ULK1 kinase) | IC50 (LRRK2 kinase)
CN(C)CCn1cc(Nc2ncc(C(F)(F)F)c(NCCCN3CCCCC3=O)n2)cn1 [Example 32] | 0.01 to 0.1 µM | – | –
Cc1nn(CCCN2CCOCC2)cc1Nc1ncc(C(F)(F)F)c(NCCCN2CCCCCC2=O)n1 [Example 100] | 0.1 to 0.3 µM | – | –
Cc1nn(C2CCN(C)CC2)cc1Nc1ncc(C(F)(F)F)c(NCCCN2CCCOCC2=O)n1 [Example 102] | – | 0.001 to 0.025 µM | –
Cc1nn(C2CCN(C)CC2)cc1Nc1ncc(Cl)c(NCCCN2CCCOCC2=O)n1 [Example 105] | 0.1 to 0.3 µM | – | –
Cc1nn(C2CCN(C)CC2)cc1Nc1ncc(C(F)(F)F)c(NCCCN2CCOCCC2=O)n1 [Example 127] | 0.01 to 0.1 µM | 0.001 to 0.025 µM | –
Cc1nn([C@@H]2CCN(C)C2)cc1Nc1ncc(C(F)(F)F)c(NCCCN2CCCCC2=O)n1 [Example 18] | 0.1 to 0.3 µM | – | –
Cc1nn([C@H]2CCN(C)C2)cc1Nc1ncc(Br)c(NCCCN2CCCCC2=O)n1 [Example 61] | – | 0.025 to 0.1 µM | –
Cc1nn(C2CCN(C)CC2)cc1Nc1ncc(C(F)(F)F)c(NCCCN2CCCCC2=O)n1 [Example 8] | 0.01 to 0.1 µM | – | 0.1 to 0.3 µM
Cc1nn(C2CCN(C(C)C)CC2)cc1Nc1ncc(C(F)(F)F)c(NCCCN2CCCOC2=O)n1 [Example 68] | 0.1 to 0.3 µM | 0.025 to 0.1 µM | –
Cc1nn(C2CCN(C(C)C)CC2)cc1Nc1ncc(C(F)(F)F)c(NCCCN2CCCCC2=O)n1 [Example 15] | 0.01 to 0.1 µM | – | –
CCN1CC[C@H](n2cc(Nc3ncc(Br)c(NCCCN4CCCCC4=O)n3)c(C)n2)C1 [Example 64] | – | – | 0.3 to 0.6 µM
